The test system of experiment [1] is YAP1 protein level in A549 cells. Briefly: YAP1 protein level by Western blot in A549 cells. The experiment is classed as cell-based. Here is the method:
A549 cells were treated with TD034 at 5 and 10 μM for 24 hr. Western blot was used to check for YAP1 protein level. qRT-PCR was used to check for YAP1 downstream genes transcription (CTGF and CYR61). Total RNA was extracted using IBI Isolate Total Extraction Reagent Kit (IB47602). […] of RNA was reverse transcribed using OneScript Plus cDNA Synthesis Kit (ABM G236) according to the manufacturer’s protocol. Real-time PCR was performed using BlasTaq 2X qPCR MasterMix (ABM G892) on a QuantStudio 3 Real-Time PCR System. All qPCR reactions were performed in triplicates. The list of primers is included in the Supporting Information.
On the technique in general: A western blot detects proteins with antibodies after separation by electrophoresis.

The test system of experiment [2] is α-tubulin, p53, and histone H3 acetylation levels. Briefly: Acetylation levels of α-tubulin, p53 and histone H3 by Western blot in cells. The experiment is classed as cell-based. To be noted: 3 h of treatment. The source says: . As a positive control, we used trichostatin A (TSA), a nonselective HDAC inhibitor against both class I and class IIb HDACs.[25] […]

A further experiment deals with T1, HDAC8 (Homo sapiens, UniProt Q9BY41).
T1 sequence (Q9BY41 1-377): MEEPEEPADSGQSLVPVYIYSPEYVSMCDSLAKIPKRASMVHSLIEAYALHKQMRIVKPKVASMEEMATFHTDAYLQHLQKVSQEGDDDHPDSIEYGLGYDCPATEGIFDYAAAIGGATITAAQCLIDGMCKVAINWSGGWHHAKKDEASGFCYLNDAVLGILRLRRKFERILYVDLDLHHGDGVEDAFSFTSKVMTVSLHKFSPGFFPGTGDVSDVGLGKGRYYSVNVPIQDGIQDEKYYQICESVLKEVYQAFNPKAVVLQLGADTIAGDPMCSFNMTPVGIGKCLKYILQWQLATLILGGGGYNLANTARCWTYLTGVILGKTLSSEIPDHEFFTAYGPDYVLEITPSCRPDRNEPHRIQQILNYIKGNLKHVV
As to the kind of experiment: HDAC8 enzyme activity assay (Ac-H3K9, HPLC). The settings on record: read-out: HDAC8, % inhibition.

The next experiment addresses T2, SIRT2 (Homo sapiens, UniProt Q8IXJ6).
T2 sequence (Q8IXJ6 1-389): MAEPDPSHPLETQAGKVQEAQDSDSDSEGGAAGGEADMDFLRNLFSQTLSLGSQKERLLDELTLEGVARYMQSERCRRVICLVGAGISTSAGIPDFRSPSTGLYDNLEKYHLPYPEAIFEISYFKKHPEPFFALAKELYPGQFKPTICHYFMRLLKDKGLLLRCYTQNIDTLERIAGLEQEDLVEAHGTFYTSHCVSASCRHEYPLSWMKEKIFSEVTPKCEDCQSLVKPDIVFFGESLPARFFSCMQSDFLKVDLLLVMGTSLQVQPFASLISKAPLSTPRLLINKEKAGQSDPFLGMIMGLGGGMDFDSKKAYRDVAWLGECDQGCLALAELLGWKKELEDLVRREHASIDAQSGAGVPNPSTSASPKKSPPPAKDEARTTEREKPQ
Briefly: SIRT2 enzyme activity assay (Ac-H3K9, NAD+, HPLC).

The target in another experiment is HDAC4 (Homo sapiens, UniProt P56524). As to the kind of experiment: HDAC4 enzyme activity assay (trifluoroacetyl-H3K9, HPLC). To be noted: read-out: HDAC4, % inhibition.
Chain of HDAC4 (P56524 whole entry): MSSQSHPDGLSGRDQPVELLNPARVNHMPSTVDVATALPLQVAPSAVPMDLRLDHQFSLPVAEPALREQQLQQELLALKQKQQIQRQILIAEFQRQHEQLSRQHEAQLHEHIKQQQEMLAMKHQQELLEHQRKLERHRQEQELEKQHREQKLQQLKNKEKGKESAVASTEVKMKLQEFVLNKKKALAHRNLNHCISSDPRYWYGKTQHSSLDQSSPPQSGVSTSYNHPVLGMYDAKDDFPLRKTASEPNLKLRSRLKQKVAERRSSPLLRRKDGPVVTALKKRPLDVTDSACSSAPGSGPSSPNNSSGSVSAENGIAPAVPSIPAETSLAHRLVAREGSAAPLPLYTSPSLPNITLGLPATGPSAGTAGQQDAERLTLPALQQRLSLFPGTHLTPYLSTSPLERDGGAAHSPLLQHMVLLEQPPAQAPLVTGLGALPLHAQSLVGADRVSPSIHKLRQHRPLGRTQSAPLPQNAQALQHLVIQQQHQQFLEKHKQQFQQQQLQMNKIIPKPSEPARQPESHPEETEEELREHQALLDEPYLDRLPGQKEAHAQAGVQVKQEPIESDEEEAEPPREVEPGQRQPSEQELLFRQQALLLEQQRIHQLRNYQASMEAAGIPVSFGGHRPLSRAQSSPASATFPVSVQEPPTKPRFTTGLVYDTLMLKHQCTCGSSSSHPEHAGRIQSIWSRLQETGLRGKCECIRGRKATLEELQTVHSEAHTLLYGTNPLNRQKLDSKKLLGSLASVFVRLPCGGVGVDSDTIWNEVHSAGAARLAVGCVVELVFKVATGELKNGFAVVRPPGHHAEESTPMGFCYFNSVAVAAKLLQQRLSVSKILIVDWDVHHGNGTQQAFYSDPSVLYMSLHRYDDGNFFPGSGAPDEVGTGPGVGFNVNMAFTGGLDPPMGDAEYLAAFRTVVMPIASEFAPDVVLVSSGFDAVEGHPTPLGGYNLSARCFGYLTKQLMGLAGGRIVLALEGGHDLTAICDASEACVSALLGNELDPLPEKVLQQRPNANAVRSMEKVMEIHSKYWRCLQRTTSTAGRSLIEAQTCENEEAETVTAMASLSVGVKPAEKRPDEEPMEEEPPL

The structures appear in SMILES notation.

Experimental for HDAC4: (§1) For HDAC1, 6, 8, and SIRT1-2, Ac-H3K9 was used as a substrate. […] The reaction was conducted for 15 min (HDAC11), 30 min (HDAC1, 4, 6, 8), and 5 min (SIRT1-2). Then, 20 μL of 0.2% TFA/acetonitrile was added to quench the reaction. The samples were analyzed by HPLC using a Chromolith HighResolution RP-18 end-capped 100 mm × 4.6 mm column (EMD Millipore). Mobile phase A was 0.1% TFA in water and mobile phase B was 0.1% TFA in acetonitrile. The total flow rate was 1 mL/min, and the gradient was 0% B (2 min), 0–60% B (7 min), 100% B (4 min), and 0% B (2 min). The relative ratio of product/substrate in each sample was compared to control sample (no inhibitor) to determine the inhibition level.
Experimental for HDAC8: as §1
Experimental for SIRT2: as §1

For the compound `CCCCCCCCCCC[C@H]1O[C@@H]1C(=O)CCCCC[C@@H]1NC(=O)[C@H]2CCCCN2C(=O)[C@H](Cc2ccccc2)NC(=O)[C@H](Cc2ccccc2)NC1=O` [TD034], in experiment [1] (A549 cells, 5 and 10 μM, 24 hr), the YAP1 protein levels result is “significant reduction”. Further, the YAP1 protein level entry in experiment [1] (wild-type (WT) A549 cells) is “reduced”. Moreover, in experiment [2], the “level of acetylated α-tubulin (HDAC6 and SIRT2 target)” value was “did not have such an effect”; the “levels of acetylated histone H3 and acetylated p53 (class I HDACs and SIRT1 target)” value is given as “did not have such an effect”. Moreover, at HDAC8, the inhibition (as a rule, how much of the control response was suppressed) at 1 µM turned out to be 0%; the inhibition at 10 µM came out at 0%; the inhibition at 25 µM is 0%. Further, the 50% inhibitory concentration (IC50) (usually the concentration needed to halve the response being measured) at SIRT2 was around 25 µM. In addition, at SIRT2 (read-out: SIRT2, % inhibition), the inhibition at 1 µM stood at 9%, the inhibition at 10 µM worked out at 29% and the inhibition at 25 µM worked out at 54%. At HDAC4, the inhibition at 1 µM was found to be 0%, the inhibition at 10 µM turned out to be 0% and the inhibition at 25 µM was 0%.

(Values after publication PMC10127203, “Trapoxin A Analogue as a Selective Nanomolar Inhibitor of HDAC11” (ACS Chemical Biology, 2023).)
